Measured values as given in patent publication US7169772B2, “4,4-difluoro-1,2,3,4-tetrahydro-5H-1-benzazepine derivatives or salts thereof” (Astellas Pharma Inc., priority 2001, dated 2007).
Each block holds one compound with its values, some of them ahead of it.

Experiments:
[1] = biological target: T1, human V2 receptor (Homo sapiens, UniProt P30518); test: V2 receptor binding assay; details: human V2 expression CHO cell membrane, [3H]-Vasopressin 0.5 nM, 25° C., 60 minutes; read-out: Ki (affinity for V2 receptor)
T1 construct: expressed in transfected cells; host or cells: CHO cells
Experimental: (1) V2 Receptor Binding Assay
A human V2 expression CHO cell membrane sample was prepared in accordance with a method of Tahara, et al. (British Journal of Pharmacology. Vol 125, p. 1463–1470, 1998). 2 μg of the membrane sample were incubated in a total of 250 μl of 50 mM tris-chloric acid buffer solution (pH=7.4) containing 10 mM MgCl2 and 0.1% bovine serum albumin (BSA), together with [^3H]-Arginine-Vasopressin (hereinafter referred to as ‘[^3H]-Vasopressin’) (0.5 nM, Specific activity=75 Ci mmol) and a test compound (10^−10˜10^−5 M) at 25° C. for 60 minutes. Then, free [^3H]-Vasopressin and receptor binding [^3H]-Vasopressin were separated using a cell harvester, and the receptor binding [^3H]-Vasopressin was adsorbed on a Unifilter Plate GF/B glass filter, sufficiently dried, and then mixed with a microplate scintillation cocktail. The amount of receptor binding [^3H]-Vasopressin was measured using a top count, and inhibition rate was calculated by the following equation. Inhibition Rate(%)=100−(C1−B1)/(C0−B1)×100 • C1: the amount of [^3H]-Vasopressin bound to the membrane sample, when the receptor membrane sample is treated in the coexistence of a test compound of known concentration and [^3H]-Vasopressin • C0: the amount of [^3H]-Vasopressin bound to the membrane sample, when the receptor membrane sample is treated with [^3H]-Vasopressin, in the absence of a test compound • B1: the amount of [^3H]-Vasopressin bound to the membrane sample, when the receptor membrane sample is treated in the coexistence of an excess amount of Vasopressin (10^−6 M) and [^3H]-Vasopressin
Dissociation Coefficient (Ki)=IC50/(1+[L]/Kd) • [L]: the concentration of [^3H]-Vasopressin • Kd: dissociation coefficient of [3H]-Vasopressin for the receptor, calculated from saturation binding assay

[2] = biological target: CYP3A4 (Homo sapiens, UniProt P08684); test: Cytochrome P450 (3A4) enzyme inhibition assay; assay type: biochemical; details: substrate 7-benzyloxy-4-(trifluoromethyl)coumarin, 37° C., 30 minutes
Experimental: (4) Cytochrome P450 (3A4) Enzyme Inhibition Assay
(§1) The assay was carried out in accordance with a method of Crespi, et al. (Analytical Biochemistry, 248, 188–190, 1997).
A 96 well plate was employed, and 7-benzyloxy-4-(trifluoromethyl)coumarin (5×10^−5 M) as a substrate, a test compound (4.9×10^−8˜5×10^−5 M), and an enzyme (5×10^−9 M) were incubated in a total of 200 μl of a 200 mM phosphate buffer solution (pH=7.4) comprising 8.2 μM NADP+, 0.41 mM glucose-6-phosphate, 0.41 mM MgCl2, and 0.4 Units/ml glucose-6-phosphate dehydrogenase, at 37° C. for 30 minutes. Then, 0.5 M aqueous solution of 2-amino-2-hydroxymethyl-1,3-propanediol containing 80% acetonitrile was added thereto to stop the reaction, and fluorescence intensity was measured with a fluorescent plate reader (excited wavelength: 409 nm, fluorescent wavelength: 530 nm). […] Inhibition Rate (%)=100−(C1−B1)/(C0−B1)×100 • C1: fluorescence intensity in the presence of a known concentration of test compound, enzyme, and a substrate
(§2) C0: fluorescence intensity in the presence of an enzyme and a substrate, in the absence of a test compound • B1: fluorescence intensity of a blank well (5) Cytochrome P450 (2C9) Enzyme Inhibition Effects

[3] = biological target: CYP2C9 (Homo sapiens, UniProt P11712); test: Cytochrome P450 (2C9) enzyme inhibition effects; assay type: biochemical; details: substrate 7-methoxy-4-(trifluoromethyl)coumarin, 37° C., 45 minutes
Experimental: as §2, §1
A 96 well plate was employed, and 7-methoxy-4-(trifluoromethyl)coumarin (7.5×10^−5 M) as a substrate, a test compound (4.9×10^−8˜5×10^−5M), and an enzyme (10^−8 M) were incubated in a total of 200 μl of a 200 mM phosphate buffer solution (pH=7.4) comprising 8.2 μM NADP+, 0.41 mM glucose-6-phosphate, 0.41 mM MgCl2, and 0.4 Units/ml glucose-6-phosphate dehydrogenase, at 37° C. for 45 minutes. Then, 0.5 M aqueous solution of 2-amino-2-hydroxymethyl-1,3-propanediol containing 80% acetonitrile was added thereto to stop the reaction, and fluorescence intensity was measured with a fluorescent plate reader (excited wavelength: 409 nm, fluorescent wavelength: 530 nm). […]

[4] = tested on: Wistar male rats; test: Antidiuresis assay (oral administration); assay type: in vivo; details: Rattus norvegicus, read-out: ED50 (amount required for decreasing urinary excretion rate by 50%), 30 ml/kg water load after 15 minutes, urine until 4 hours after water load
Experimental: (3) Antidiuresis Assay (Oral Administration)
For the assay, Wistar male rats (10˜12 weeks of age) were employed. The test compound was orally administrated, and after 15 minutes, 30 ml/kg of distilled water were orally administrated (water load). Until 4 hours after the water load, urine was collected in a metabolism cage, and the amount of urine when the water load was set to 100% was calculated as the urinary excretion rate. […]

Chain of CYP3A4 (P08684 whole entry): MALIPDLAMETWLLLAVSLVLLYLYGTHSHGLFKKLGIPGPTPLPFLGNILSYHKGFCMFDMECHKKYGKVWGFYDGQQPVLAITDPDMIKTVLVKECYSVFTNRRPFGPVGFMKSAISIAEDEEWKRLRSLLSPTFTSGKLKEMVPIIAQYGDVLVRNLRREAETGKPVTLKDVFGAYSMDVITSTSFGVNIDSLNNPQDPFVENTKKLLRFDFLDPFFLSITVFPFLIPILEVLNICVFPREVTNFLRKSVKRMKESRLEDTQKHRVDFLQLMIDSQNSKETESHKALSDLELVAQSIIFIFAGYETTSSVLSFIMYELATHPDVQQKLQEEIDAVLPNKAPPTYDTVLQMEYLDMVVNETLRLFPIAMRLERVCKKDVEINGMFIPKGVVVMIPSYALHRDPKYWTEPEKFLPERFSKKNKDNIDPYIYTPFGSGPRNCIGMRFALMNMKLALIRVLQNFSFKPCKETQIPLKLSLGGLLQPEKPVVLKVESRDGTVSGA
Chain of CYP2C9 (P11712 whole entry): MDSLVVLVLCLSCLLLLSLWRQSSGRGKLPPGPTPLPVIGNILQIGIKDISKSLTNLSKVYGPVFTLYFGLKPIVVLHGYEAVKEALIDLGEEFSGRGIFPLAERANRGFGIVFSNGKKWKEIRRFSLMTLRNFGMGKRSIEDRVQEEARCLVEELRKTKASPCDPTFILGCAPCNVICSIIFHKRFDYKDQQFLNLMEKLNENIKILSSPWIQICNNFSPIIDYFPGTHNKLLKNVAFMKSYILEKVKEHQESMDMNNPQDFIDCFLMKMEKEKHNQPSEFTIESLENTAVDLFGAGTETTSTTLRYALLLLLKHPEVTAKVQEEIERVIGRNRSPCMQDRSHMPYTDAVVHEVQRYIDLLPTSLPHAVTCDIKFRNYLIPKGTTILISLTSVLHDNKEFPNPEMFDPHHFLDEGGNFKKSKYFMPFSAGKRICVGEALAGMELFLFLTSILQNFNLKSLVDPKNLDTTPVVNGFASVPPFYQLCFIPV
T1 sequence (P30518 whole entry): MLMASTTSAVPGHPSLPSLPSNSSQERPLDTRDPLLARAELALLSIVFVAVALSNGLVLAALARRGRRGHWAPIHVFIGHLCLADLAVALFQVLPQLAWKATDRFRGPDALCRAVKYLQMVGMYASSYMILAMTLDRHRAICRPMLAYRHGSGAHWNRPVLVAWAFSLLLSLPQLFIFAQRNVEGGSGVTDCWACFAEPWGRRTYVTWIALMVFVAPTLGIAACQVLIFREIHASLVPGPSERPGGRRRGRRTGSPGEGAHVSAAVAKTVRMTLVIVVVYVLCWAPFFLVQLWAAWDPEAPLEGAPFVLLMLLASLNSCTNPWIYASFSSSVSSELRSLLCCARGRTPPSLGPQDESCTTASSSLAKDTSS

Structure (SMILES): Cc1ccn(-c2ccc(C(=O)N3CCC(F)(F)/C(=C\C(=O)N4CCCC(C(N)=O)C4)c4ccccc43)c(Cl)c2)n1 (stereo not shown) [Example 58, 1-((2Z)-2-{1-[2-chloro-4-(3-methyl-1H-pyrazol-1-yl)benzoyl]-4,4-difluoro-1,2,3,4-tetrahydro-5H-1-benzazepin-5-ylidene}acetyl)piperidine-3-carboxamide]
Ki [1]: 4.8 nM

Structure (SMILES): Cc1ccn(-c2ccc(C(=O)N3CCC(F)(F)/C(=C\C(=O)Nc4ccc(C(N)=O)cc4)c4ccccc43)c(Cl)c2)n1 [Example 72, 4-[((2Z)-2-{1-[2-chloro-4-(3-methyl-1H-pyrazol-1-yl)benzoyl]-4,4-difluoro-1,2,3,4-tetrahydro-5H-1-benzazepin-5-ylidene}acetyl)amino]benzamide]
Ki [1]: 3.7 nM

Structure (SMILES): Cc1ccn(-c2ccc(C(=O)N3CCC(F)(F)/C(=C\C(N)=O)c4ccccc43)c(Cl)c2)n1 [Example 8, (2Z)-2-{1-[2-chloro-4-(3-methyl-1H-pyrazol-1-yl)benzoyl]-4,4-difluoro-1,2,3,4-tetrahydro-5H-benzazepine}acetamide]
IC50 [2]: > 20000 nM
IC50 [3]: 13000 nM

Structure (SMILES): CC(C)NC(=O)C[C@H]1CCCN(C(=O)c2ccc(N3CCCC3)cc2Cl)c2ccccc21 [Control, 2-[(5R)-1-(2-chloro-4-pyrrolidin-1-ylbenzoyl)-2,3,4,5-tetrahydro-1H-1-benzazepin-5-yl]-N-isopropyacetamide, reference compound]
Ki [1]: 68 nM
IC50 [2]: < 91 nM
IC50 [3]: < 91 nM

The next lines start with results.

Ki [1]: 2.2 nM
Structure (SMILES): Cc1ccn(-c2ccc(C(=O)N3CCC(F)(F)/C(=C\C(=O)Nc4cccc(CO)c4)c4ccccc43)c(Cl)c2)n1 [Example 76, (2Z)-2-{1-[2-chloro-4-(3-methyl-1H-pyrazol-1-yl)benzoyl]-4,4-difluoro-1,2,3,4-tetrahydro-5H-1-benzazepin-5-ylidene}-N-[3-(hydroxymethyl)phenyl]acetamide]
ED50 [4]: 0.22 mg/kg

Ki [1]: 5.6 nM
Structure (SMILES): Cc1cccc(CNC(=O)/C=C2/c3ccccc3N(C(=O)c3ccc(-n4ccc(C)n4)cc3Cl)CCC2(F)F)n1 [Example 119, (2Z)-2-{1-[2-chloro-4-(3-methyl 1H-pyrazol-1-yl)benzoyl]-4,4-difluoro-1,2,3,4-tetrahydro-5H-1-benzazepin-5-ylidene}-N-[(6-methylpyridin-2-yl)methyl]acetamide]

Ki [1]: 5.6 nM
Structure (SMILES): Cc1cccc(NC(=O)/C=C2/c3ccccc3N(C(=O)c3ccc(-n4ccc(C)n4)cc3Cl)CCC2(F)F)c1 [Example 74, (2Z)-2-{1-[2-chloro-4-(3-methyl-1H-pyrazol-1-yl)benzoyl]-4,4-difluoro-1,2,3,4-tetrahydro-5H-1-benzazepin-5-ylidene}-N-(3-methylphenyl)acetamide]

IC50 [2]: 10000 nM
IC50 [3]: 11000 nM
Structure (SMILES): NC(=O)CNC(=O)/C=C1/c2ccccc2N(C(=O)c2ccc(N3CCCC3)cc2Cl)CCC1(F)F [Example 220, (2Z)-N-(2-amino-2-oxoethyl)-2-[1-(2-chloro-4-pyrrolidin-1-ylbenzoyl)-4,4-difluoro-1,2,3,4-tetrahydro-5H-1-benzazepin-5-ylidene]acetamide]
